28 molecules from patent US7423159B2, “Agent for preventing or treating neuropathy” (Takeda Pharmaceutical Company Limited, priority 2002, dated 2008) can be followed below.

A word on the melting point: it is the temperature, or range, at which the solid turns liquid. In turn, `CCc1coc(Cc2ccc(NC(=O)/C=C/c3cnn(C)c3-c3ccc(F)cc3)cc2)n1` [Example 98, (2E)-N-{4-[(4-Ethyl-1,3-oxazol-2-yl)methyl]phenyl}-3-[5-(4-fluorophenyl)-1-methyl-1H-pyrazol-4-yl]acrylamide] had a melting point of 174 to 175 °C.

For the molecule `CSc1ccc(NC(=O)/C=C/c2cnn(C)c2-c2ccc(F)cc2)cc1` [Example 204, (2E)-3-[5-(4-Fluorophenyl)-1-methyl-1H-pyrazol-4-yl]-N-[4-(methylthio)phenyl]acrylamide], the melting point was in the range of 164 to 165 °C.

`Cn1ncc(/C=C/C(=O)Nc2ccc(CS(=O)(=O)C(C)(C)C)cc2)c1-c1ccc(F)cc1` [Example 224, (2E)-N-{4-[(tert-Butylsulfonyl)methyl]phenyl}-3-[5-(4-fluorophenyl)-1-methyl-1H-pyrazol-4-yl]acrylamide]: the melting point is 260 to 261 °C.

`COP(=O)(Cc1ccc(NC(=O)/C=C/c2cnn(C)c2-c2cccs2)cc1)OC` had a melting point of 247 to 248 °C.

`Cn1nnc(Cc2ccc(NC(=O)/C=C/c3cnn(C)c3-c3ccc(F)cc3)cc2)n1` [Example 102, (2E)-3-[5-(4-Fluorophenyl)-1-methyl-1H-pyrazol-4-yl]-N-{4-[(2-methyl-2H-tetrazol-5-yl)methyl]phenyl}acrylamide] displayed a melting point of 159 to 161 °C.

`COP(=O)(Cc1ccc(NC(=O)/C=C/c2cnn(C)c2-c2cccc(Cl)c2)cc1)OC`: the melting point is 248 to 249 °C.

With `Cn1ncc(/C=C/C(=O)Nc2ccc(-n3cccn3)cc2)c1-c1ccc(F)cc1` [Example 197, (2E)-3-[5-(4-Fluorophenyl)-1-methyl-1H-pyrazol-4-yl]-N-[4-(1H-pyrazol-1-yl)phenyl]acrylamide], the melting point was in the range of 200 to 201 °C.

Molecule `CSCc1ccc(NC(=O)/C=C/c2cnn(C)c2-c2ccc(SC)cc2)cc1` [Example 207, (2E)-3-{1-methyl-5-[4-(methylthio)phenyl]-1H-pyrazol-4-yl}-N-{4-[(methylthio)methyl]phenyl}acrylamide] displayed a melting point of 145 to 146 °C.

In turn, `CCOP(=O)(Cc1ccc(NC(=O)/C=C/c2cnn(C)c2-c2cccc(F)c2)cc1)OCC` registered a melting point of 205 to 206 °C.

For the molecule `CCOP(=O)(Cc1ccc(NC(=O)/C=C/c2cnn(C)c2)cc1)OCC`, the melting point was 201 to 202 °C.

In the case of `Cc1nc(Cc2ccc(NC(=O)/C=C/c3cnn(C)c3-c3ccc(F)cc3)cc2)cs1` [Example 100, (2E)-3-[5-(4-Fluorophenyl)-1-methyl-1H-pyrazol-4-yl]-N-{4-[(2-methyl-1,3-thiazol-4-yl)methyl]phenyl}acrylamide], the melting point is 192 to 193 °C.

`CCOC(=O)c1csc(Cc2ccc(NC(=O)/C=C/c3cnn(C)c3-c3ccc(F)cc3)cc2)n1` [Example 126, Ethyl 2-[4-({(2E)-3-[5-(4-fluorophenyl)-1-methyl-1H-pyrazol-4-yl]prop-2-enoyl}amino)benzyl]-1,3-thiazole-4-carboxylate] came in with a melting point of 189 to 190 °C.

In turn, `CCc1nc(Cc2ccc(NC(=O)/C=C/c3cnn(C)c3-c3ccc(F)cc3)cc2)cs1` [Example 99, (2E)-N-{4-[(2-Ethyl-1,3-thiazol-4-yl)methyl]phenyl}-3-[5-(4-fluorophenyl)-1-methyl-1H-pyrazol-4-yl]acrylamide] came in with a melting point of 178 to 179 °C.

In turn, `CCCc1nnc(Cc2ccc(NC(=O)/C=C/c3cnn(C)c3-c3ccc(F)cc3)cc2)o1` [Example 85, (2E)-3-[5-(4-fluorophenyl)-1-methyl-1H-pyrazol-4-yl]-N-{4-[(5-propyl-1,3,4-oxadiazol-2-yl)methyl]phenyl}acrylamide] gave a melting point of 154 to 155 °C.

As to `CCOP(=O)(Cc1ccc(NC(=O)/C=C/c2cn(C)nc2-c2ccc(F)cc2)cc1)OCC`, the melting point lay in the range of 197 to 198 °C.

Molecule `CN(C)C(=O)Cc1ccc(NC(=O)/C=C/c2cnn(C)c2-c2ccc(F)cc2)cc1` [Example 143, (2E)-N-{4-[2-(dimethylamino)-2-oxoethyl]phenyl}-3-[5-(4-fluorophenyl)-1-methyl-1H-pyrazol-4-yl]acrylamide] gave a melting point of 209 to 210 °C.

`CCOP(=O)(Cc1ccc(NC(=O)/C=C/c2cnn(C)c2-c2ccc(C)cc2)cc1)OCC` had a melting point of 243 to 245 °C.

In turn, `Cn1ncc(/C=C/C(=O)Nc2ccc(C(N)=O)cc2)c1-c1ccc(F)cc1` [Example 183, 4-({(2E)-3-[5-(4-Fluorophenyl)-1-methyl-1H-pyrazol-4-yl]prop-2-enoyl}amino)benzamide] returned a melting point of 276 to 278 °C.

Molecule `CC[S+]([O-])Cc1ccc(NC(=O)/C=C/c2cnn(C)c2-c2ccc(F)cc2)cc1` (stereo not shown) [Example 216, (2E)-N-{4-[(Ethylsulfinyl)methyl]phenyl}-3-[5-(4-fluorophenyl)-1-methyl-1H-pyrazol-4-yl]acrylamide] gave a melting point of 228 to 229 °C.

For the molecule `Cn1ncc(/C=C/C(=O)Nc2ccc(Cn3nnc4ccccc43)cc2)c1-c1ccc(F)cc1` [Example 177, (2E)-N-[4-(1H-1,2,3-Benzotriazol-1-ylmethyl)phenyl]-3-[5-(4-fluorophenyl)-1-methyl-1H-pyrazol-4-yl]acrylamide], the melting point is 226 to 227 °C.

Turning to `CCOP(=O)(Cc1ccc(NC(=O)/C=C/c2cnn(C)c2-c2ccco2)cc1)OCC`, the melting point is 195 to 196 °C.

In the case of `CC(C)c1nccn1Cc1ccc(NC(=O)/C=C/c2cnn(C)c2-c2ccc(F)cc2)cc1` [Example 162, (2E)-3-[5-(4-Fluorophenyl)-1-methyl-1H-pyrazol-4-yl]-N-{4-[(2-isopropyl-1H-imidazol-1-yl)methyl]phenyl}acrylamide], the melting point was in the range of 271 to 272 °C.

As to `Cn1ncc(/C=C/C(=O)Nc2ccc(Cn3ncc4ccccc43)cc2)c1-c1ccc(F)cc1` [Example 176, (2E)-3-[5-(4-Fluorophenyl)-1-methyl-1H-pyrazol-4-yl]-N-[4-(1H-indazol-1-ylmethyl)phenyl]acrylamide], the melting point was in the range of 146 to 148 °C.

Regarding `Cn1ncc(/C=C/C(=O)Nc2ccc(CO)cc2)c1-c1ccc(F)cc1` [Example 153, (2E)-3-[5-(4-Fluorophenyl)-1-methyl-1H-pyrazol-4-yl]-N-[4-(hydroxymethyl)phenyl]acrylamide], the melting point fell in the range of 117 to 118 °C.

`CCOP(=O)(Cc1ccc(NC(=O)/C=C/c2nncn2-c2ccc(F)cc2)cc1)OCC` returned a melting point of 217 to 218 °C.

As for `Cc1nc(Cc2ccc(NC(=O)/C=C/c3cnn(C)c3-c3ccc(F)cc3)cc2)no1` [Example 116, (2E)-3-[5-(4-Fluorophenyl)-1-methyl-1H-pyrazol-4-yl]-N-{4-[(5-methyl-1,2,4-oxadiazol-3-yl)methyl]phenyl}acrylamide], the melting point was 183 to 184 °C.

On to `CCOP(=O)(Cc1cccc(NC(=O)/C=C/c2cnn(C)c2-c2ccc(F)cc2)c1)OCC`, for which the melting point lay within 170 to 172 °C.

In the case of `Cn1ncc(/C=C/C(=O)Nc2ccc(CSc3c[nH]nn3)cc2)c1-c1ccc(F)cc1` [Example 213, (2E)-3-[5-(4-Fluorophenyl)-1-methyl-1H-pyrazol-4-yl]-N-(4-[(1H-1,2,3-triazol-4-ylthio)methyl)phenyl]acrylamide], the melting point lay within 182 to 183 °C.
